Data on 4 molecules can be found in ChEMBL document CHEMBL5236608, “Discovery and Optimization of Potent and Orally Available CTP Synthetase Inhibitors for Use in Treatment of Diseases Driven by Aberrant Immune Cell Proliferation” (J Med Chem, 2022).

The nature of data set [1]: in vivo. The following applies: CD-1, mouse, po, 10 mg/kg.
A short description of data set [2]: in vivo. The following applies: CD-1, mouse, po, 10 mg/kg. This is another data set of the same source.
The nature of data set [3]: in vitro. The following applies: mouse, hepatocytes.
The nature of data set [4]: in vivo. The following applies: CD-1, mouse, po, 10 mg/kg. The source holds these as a separate data set.
A short description of data set [5]: in vitro. The following applies: human, Caco-2.
A short description of data set [6]: AUC(0 to t) in collagen-induced arthritis mouse at 10 mg/kg, po measured at day 2. In kind it is ADME, organism-based. The following applies: in vivo. More on the design: time 2 day, dose 10 mg/kg, route po.
A short description of data set [7]: Lipophilicity, logD of the compound at pH 7.4. The data set is classed as physicochemical. The following applies: buffer.
The nature of data set [8]: Dose normalized AUC(0 to t) in collagen-induced arthritis mouse at 50 mg/kg, po measured at day 19. The data set is classed as ADME, organism-based. The following applies: in vivo, 456 h, time 19 day.
Data set [9] in a line: AUC(0 to t) in collagen-induced arthritis mouse at 50 mg/kg, po measured at day 19. Further details: dose 50 mg/kg, time 19 day, route po. The data set is classed as ADME, organism-based. The following applies: in vivo.
Data set [10] in a line: Cmax in collagen-induced arthritis mouse at 50 mg/kg, po measured at day 19. Further details: dose 50 mg/kg, time 19 day, route po. The following applies: in vivo. The data set is classed as ADME, organism-based.
Data set [11] is described as follows: Dose normalized AUC(0 to t) in collagen-induced arthritis mouse at 10 mg/kg, po measured at day 9. In kind it is ADME, organism-based. The following applies: in vivo, 216 h, time 9 day.
Data set [12] can be described thus: Dose normalized AUC(0 to t) in collagen-induced arthritis mouse at 10 mg/kg, po measured at day 2. In kind it is ADME, organism-based. The following applies: in vivo, 48 h, time 2 day.
The nature of data set [13]: Cmax in collagen-induced arthritis mouse at 50 mg/kg, po measured at day 9. The following applies: in vivo. More on the design: dose 50 mg/kg, time 9 day, route po. The data set is classed as ADME, organism-based.
Data set [14] can be described thus: Dose normalized AUC(0 to t) in collagen-induced arthritis mouse at 50 mg/kg, po measured at day 9. The following applies: in vivo, 216 h, time 9 day. The data set is classed as ADME, organism-based.
Data set [15] can be described thus: AUC(0 to t) in collagen-induced arthritis mouse at 50 mg/kg, po measured at day 2. In kind it is ADME, organism-based. More on the design: dose 50 mg/kg, time 2 day, route po. The following applies: in vivo.
The nature of data set [16]: Cmax in collagen-induced arthritis mouse at 10 mg/kg, po measured at day 2. The data set is classed as ADME, organism-based. More on the design: dose 10 mg/kg, time 2 day, route po. The following applies: in vivo.
Data set [17] in a line: Dose normalized AUC(0 to t) in collagen-induced arthritis mouse at 50 mg/kg, po measured at day 2. In kind it is ADME, organism-based. The following applies: in vivo, 48 h, time 2 day.
The nature of data set [18]: AUC(0 to t) in collagen-induced arthritis mouse at 10 mg/kg, po measured at day 9. The data set is classed as ADME, organism-based. More on the design: time 9 day, dose 10 mg/kg, route po. The following applies: in vivo.
The nature of data set [19]: AUC(0 to t) in collagen-induced arthritis mouse at 10 mg/kg, po measured at day 19. The data set is classed as ADME, organism-based. Further details: dose 10 mg/kg, time 19 day, route po. The following applies: in vivo.
Data set [20] is described as follows: Dose normalized AUC(0 to t) in collagen-induced arthritis mouse at 10 mg/kg, po measured at day 19. The data set is classed as ADME, organism-based. The following applies: in vivo, 456 h, time 19 day.
The nature of data set [21]: AUC(0 to t) in collagen-induced arthritis mouse at 50 mg/kg, po measured at day 9. In kind it is ADME, organism-based. More on the design: time 9 day, dose 50 mg/kg, route po. The following applies: in vivo.
The nature of data set [22]: Cmax in collagen-induced arthritis mouse at 50 mg/kg, po measured at day 2. In kind it is ADME, organism-based. More on the design: dose 50 mg/kg, time 2 day, route po. The following applies: in vivo.
Data set [23] is described as follows: Cmax in collagen-induced arthritis mouse at 10 mg/kg, po measured at day 9. In kind it is ADME, organism-based. More on the design: time 9 day, dose 10 mg/kg, route po. The following applies: in vivo.
A short description of data set [24]: Cmax in collagen-induced arthritis mouse at 10 mg/kg, po measured at day 19. The data set is classed as ADME, organism-based. Further details: dose 10 mg/kg, time 19 day, route po. The following applies: in vivo.

Broadly, the bioavailability is the share of a dose that reaches the circulation, judged against a reference dose that is usually intravenous. A lower bioavailability goes with little systemic uptake. What is called Cmax is the highest concentration seen after dosing. A word on the hepatocyte CLint: it is a measure of how fast metabolising enzymes remove a compound, apart from limits set by blood flow. As usually defined, the AUC(0-t) is exposure summed from dosing to a finite time, without extrapolation to infinity. Lower therefore signals low exposure. Molecule `CCCOc1ccc(NC(=O)C(C)(C)c2csc(NS(=O)(=O)C3CC3)n2)cc1` gave a bioavailability in the data set “in vivo [1]” of 35%. Further, the Cmax in the data set “in vivo [2]” stood at 0.9 µM. For the same molecule, in “in vitro [3]”, the intrinsic metabolic clearance (hepatocyte CLint) at 1 h, 1 µM turned out to be 32 µL/min/1e6 cells. In the data set “in vivo [4]”, this molecule displayed an area under the curve AUC(0-t) of 2.34 µM·h.
The pKa is the pH at which an ionisable group is half protonated. Low readings indicate a stronger acid or weaker base, high ones a weaker acid or stronger base. In “physchem”, `CS(=O)(=O)Nc1nc(CC(=O)Nc2cccc(Cl)c2)cs1` displayed a pKa of 6.58.
As a reminder, the Papp A→B is the apparent permeability from the apical to the basolateral side of a cell layer. A low value points to slow passage. In “in vivo [1]”, `CC(C)(C(=O)Nc1ccc(-c2cncc(C(F)(F)F)n2)cc1F)c1csc(NS(=O)(=O)C2CC2)n1` gave a bioavailability of 95%. For the same molecule, the highest level in the data set “in vivo [2]” (Cmax) was 11.1 µM. Besides, the hepatocyte CLint at 1 h, 1 µM in the data set “in vitro [3]” is less than 1 µL/min/1e6 cells. This molecule yielded a Papp A→B at 2 h, 10 µM in the data set “in vitro [5]” of 9.9 ×10⁻⁶ cm/s. In addition, the AUC(0-t) in the data set “in vivo [4]” was 56.1 µM·h.
By logD is commonly meant lipophilicity at a set pH, counting ionised and neutral species. For `CC(C)(C(=O)Nc1ccc(-c2cncc(C(F)(F)F)n2)cn1)c1csc(NS(=O)(=O)C2CC2)n1`, the figures for the AUC(0-t) at 48 h in [6] and in [15] were 15000 ng·h/mL and 43700 ng·h/mL, respectively. Also, the pH-dependent lipophilicity (logD) in data set [7] amounted to 2.46. Further, the AUCt/dose is 1052 ng·h/mL in data set [8]; 1188 ng·h/mL in data set [11]; 1503 ng·h/mL in [12]; 587 ng·h/mL in [14]; 873 ng·h/mL in data set [17]; 1049 ng·h/mL in data set [20]. Besides, the Cmax in the data set “in vivo [2]” was determined as 5.3 µM; in [10], 13000 ng/mL; in [13] it was 6390 ng/mL; in [16], 4770 ng/mL; in data set [22], 7830 ng/mL; in [23] it was 3360 ng/mL. In [24], this molecule showed a Cmax of 3570 ng/mL. Besides, the AUC(0-t) at 456 h is 52600 ng·h/mL in data set [9] and 10500 ng·h/mL in data set [19]. In addition, the hepatocyte CLint at 1 h, 1 µM in “in vitro [3]” was determined as 8 µL/min/1e6 cells. Further, the Papp A→B at 2 h, 10 µM in the data set “in vitro [5]” worked out at 7.1 ×10⁻⁶ cm/s. For the same molecule, the exposure AUC(0-t) in “in vivo [4]” worked out at 25.3 µM·h. Further, the AUC(0-t) at 216 h stood at 11900 ng·h/mL in data set [18] and 29400 ng·h/mL in [21]. Further, in the data set “physchem”, the pKa was 6.26.
